From patent US9517245B2, “Sorafenib-microRNA combination therapy for liver cancer” (Mirna Therapeutics, Inc., priority 2014, dated 2016)
Like-named read-outs stand apart in the source and are kept apart here. Blank lines part the entries; values can stand above or below the molecule they belong to.

What was measured:
[1] = tested on: four liver cancer cell lines (Hep3b, HepG2, C3A, Huh7); assay: combination studies in four liver cancer cell lines (overall synergy statements); format: cell-based; conditions: combination with miRNA mimic instead of sorafenib; data not shown
[2] = cited from earlier work
C3A liver cancer cells = assay: sorafenib dose-effect, AlamarBlue cell proliferation; format: cell-based; conditions: 72 h, AlamarBlue 3 days post drug treatment, range from two or three experiments
Protocol: (§1) FIG. 2 illustrates dose-effect curves of sorafenib in liver cancer cells. Cells were seed in 96-well plate at 2000 cells per well. Three days after seeding the cells, sorafenib in a serial dilution from (0.1-100 μM) was added to the medium. Cell proliferation or percent inhibition was determined by AlamarBlue 3 days post drug treatment. Data were normalized to cells treated with sorafenib solvent (1% DMSO final concentration).
(§2) Sorafenib dose response curves were established in each cell line, and the cell proliferation was determined using AlamarBlue (Invitrogen) 3 days post drug treatment. Nonlinear regression and IC50 values were calculated using the GraphPad (Prism) software.
as §1, with “treatment, and IC50 values” for “treatment. Data”, “calculated using the GraphPad software.” for “normalized to cells treated with sorafenib solvent (1% DMSO final concentration).”

Hep3b liver cancer cells = assay: as above; format: cell-based; conditions: Homo sapiens, 72 h, AlamarBlue 3 days post drug treatment, range from two or three experiments
Protocol: as §1, §2
as §1, with “treatment, and IC50 values” for “treatment. Data”, “calculated using the GraphPad software.” for “normalized to cells treated with sorafenib solvent (1% DMSO final concentration).”

HepG2 liver cancer cells = assay: as above; format: cell-based; conditions: Homo sapiens, 72 h, AlamarBlue 3 days post drug treatment, range from two or three experiments
Protocol: as §1, §2
as §1, with “treatment, and IC50 values” for “treatment. Data”, “calculated using the GraphPad software.” for “normalized to cells treated with sorafenib solvent (1% DMSO final concentration).”

Huh7 liver cancer cells = assay: as above; format: cell-based; conditions: Homo sapiens, Huh-7, 72 h, AlamarBlue 3 days post drug treatment, range from two or three experiments
Protocol: as §1, §2
as §1, with “treatment, and IC50 values” for “treatment. Data”, “calculated using the GraphPad software.” for “normalized to cells treated with sorafenib solvent (1% DMSO final concentration).”

SMILES: O=c1[nH]cc(F)c(=O)[nH]1 [5-FU]
synergy in combinations with other chemotherapeutic agents [1]: synergy was not identified

SMILES: CNC(=O)c1cc(Oc2ccc(NC(=O)Nc3ccc(Cl)c(C(F)(F)F)c3)cc2)ccn1.Cc1ccc(S(=O)(=O)O)cc1 [Sorafenib tosylate, 4-(4-{3-[4-Chloro-3 (trifluoromethyl)phenyl]ureido}phenoxy) N-methylpyridine-2-carboxamide 4-methylbenzenesulfonate]
solubility ([2]; PEG 400): soluble
solubility ([2]; aqueous media): practically insoluble
solubility ([2]; ethanol): slightly soluble

IC50 (C3A liver cancer cells): 10.7 to 11.8 µM
IC50 (Hep3b liver cancer cells): 5.4 to 12.7 µM
IC50 (HepG2 liver cancer cells): 6.7 to 9 µM
IC50 (Huh7 liver cancer cells): 13.1 to 16 µM
SMILES: CNC(=O)c1cc(Oc2ccc(NC(=O)Nc3ccc(Cl)c(C(F)(F)F)c3)cc2)ccn1 [Sorafenib]

SMILES: COc1cccc2c1C(=O)c1c(O)c3c(c(O)c1C2=O)C[C@@](O)(C(=O)CO)C[C@@H]3O[C@H]1C[C@H](N)[C@H](O)[C@H](C)O1 [doxorubicin]
synergy in combinations with other chemotherapeutic agents [1]: synergy was not identified
